How the values were obtained:
[1] = molecular target: human Kv3.1 channels (hKv3.1) (Homo sapiens, UniProt P48547); assay: cell-based; type: cell-based; conditions: for Kv3.1 pEC50: HEK-hKv3.1 cells, -15 mV voltage step, normalised to 50 microM reference compound; for Kv3.1 max R %: maximum response relative to reference compound (50 microM)
From the text: The ability of the compounds of the invention to modulate the voltage-gated potassium channel subtypes Kv3.3/Kv3.2/Kv3.1 may be determined using the following assay. Analogous methods may be used to investigate the ability of the compounds of the invention to modulate other channel subtypes.
To assess compound effects on human Kv3.1 channels (hKv3.1):
Human embryonic kidney (HEK)-hKv3.1 cell line is generated by transfecting HEK-293 cells with an expression vector with human Kv3.1 (NM_004976.4). Cells are cultured with MEM supplemented with 10% Heat-Inactivated FBS, 2 mM L-glutamine, 1% Penicillin-Streptomycin, and 0.6 mg/ml of Geneticin (G418). HEK-hKv3.1b cells were amplified in T175 cm2 flask at 37° C. with 5% CO2, using MEM amplification medium, containing the G418 selection antibiotic (0.6 mg/ml). Cells were detached every 3-4 days, using DPBS to wash twice the flask, then TrypLE to dislodge the cells, and re-plated at a density of 2-4×10^6 cells/flask.
The day of the experiment, cells are removed from the incubator and the culture medium removed. Cells are washed with 5 ml of Dulbecco's PBS (DPBS) calcium and magnesium free and detached by the addition of 3 ml Versene (Invitrogen, Italy) followed by a brief incubation at 37° C. for 5 minutes. The flask is tapped to dislodge cells and 10 ml of DPBS containing calcium and magnesium is added to prepare a cell suspension. The cell suspension is then placed into a 15 ml centrifuge tube and centrifuged for 2 min at 1200 rpm. After centrifugation, the supernatant is removed and the cell pellet re-suspended in 4 ml of DPBS containing calcium and magnesium using a 5 ml pipette to break up the pellet. Cell suspension volume is then corrected to give a cell concentration for the assay of approximately 3 million cells per ml.
Experiments are conducted at r.t. using IonWorks Quattro™ planar array electrophysiology technology (Molecular Devices Corp.) with PatchPlate™ PPC. Stimulation protocols and data acquisition are carried out using a microcomputer (Dell Pentium 4). Planar electrode hole resistances (Rp) are determined by applying a 10 mV voltage step across each well. These measurements are performed before cell addition. After cell addition and seal formation, a seal test is performed by applying a voltage step from −80 mV to −70 mV for 160 ms. Following this, amphotericin-B solution is added to the intracellular face of the electrode to achieve intracellular access. Cells are held at −70 mV. Leak subtraction is conducted in all experiments by applying 50 ms hyperpolarizing (10 mV) prepulses to evoke leak currents followed by a 20 ms period at the holding potential before test pulses.
For hKv3.2 and hKv3.1, assays from the holding potential of −70 mV, a first test pulse at −15 mV was applied for 100 ms and after 100 ms at −70 mV a second pulse at +40 mV was applied for 50 ms. Cells were then maintained for 100 ms at −100 mV and another pulse from −70 mV to +40 mV (duration 50 ms) was applied to clamp later the voltage at −40 mV during 200 ms
The intracellular solution contains the following (in mM): K-gluconate 100, KCl 54, MgCl2 3.2, HEPES 5, adjusted to pH 7.3 with KOH. Amphotericin-B solution is prepared as 50 mg/ml stock solution in DMSO and diluted to a final working concentration of 0.1 mg/ml in intracellular solution. The external solution is Dulbecco's Phosphate Buffered Saline (DPBS) and contained the following (in mM): CaCl2 0.90, KCl 2.67, KH2PO4 1.47, MgCl·6H2O 0.493, NaCl 136.9, Na3PO4 8.06, with a pH of 7.4.
Compounds of use in the invention (or reference compounds such as N-cyclohexyl-N-[(7,8-dimethyl-2-oxo-1,2-dihydro-3-quinolinyl)methyl]-N-phenylurea) are dissolved in dimethylsulfoxide (DMSO) at a stock concentration of 10 mM. These solutions are further diluted with DMSO using a Biomek FX (Beckman Coulter) in a 384 compound plate. Each dilution (1 μL) is transferred to another compound plate and external solution containing 0.05% pluronic acid (66 μL) is added. […]

[2] = Determination of brain tissue binding (equilibrium dialysis); type: in vitro ADME; conditions: Sprague Dawley, rat whole brain homogenate, 5 h at 37° C.
Protocol: Sprague Dawley rat whole blood, collected on the week of the experiment using K3-EDTA as an anti-coagulant, is diluted with isotonic phosphate buffer 1:1 (v/v). Sprague Dawley rat whole brain, stored frozen at −20° C., is thawed and homogenised in artificial cerebrospinal fluid (CSF) 1:2 (w/v).
An appropriate amount of test compound is dissolved in DMSO to give a 10 millimolar solution. Further dilutions, to obtain a 166.7 micromolar working solution are then prepared using 50% acetonitrile in MilliQ water. This working solution is used to spike the blood to obtain a final concentration of 0.5 micromolar in whole blood. Similarly, the working solution is used to spike brain samples to obtain a final concentration of 5 micromolar in whole brain. From these spiked blood and brain preparations, control samples (n=3), are immediately extracted and used to calculate the initial recovery of the test items.
150 microL of compound-free buffer (isotonic phosphate buffer for blood or artificial CSF buffer for brain) is dispensed in one half-well and 150 microL of spiked matrix (blood or brain) is loaded in the other half-well, with the two halves separated by a semi-permeable membrane. After an equilibration period of 5 h at 37° C., 50 microL of dialysed matrix (blood or brain) is added to 50 microL of corresponding compound-free buffer, and vice-versa for buffer, such that the volume of buffer to matrix (blood or brain) remains the same. Samples are then extracted by protein precipitation with 300 microL of acetonitrile containing rolipram (control for positive ionization mode) or diclofenac (control for negative ionization mode) as internal standards and centrifuged for 10 min at 3000 rpm. Supernatants are collected (100 microL), diluted with 27% AcN in MilliQ water (200 microL) and then injected into an HPLC-MS/MS or UPLC-MS/MS system to determine the concentration of test compound present.
Blood and brain tissue binding are then determined using the following formulas: Afu=Buffer/Blood or Afu=CSF/Brain
Where Afu=apparent fraction unbound; Buffer=analyte/internal standard ratio determined in the buffer compartment; Blood=analyte/internal standard ratio determined in the blood compartment; Brain=analyte/internal standard ratio determined in the brain compartment.
[formula] where: fucr=Fraction unbound corrected; D=matrix dilution factor (D=2 for blood and D=3 for brain).
Then: % Binding=(1−fucr)×100 % Unbound=100−% Bound Brain/Blood Partition Ratio (Kbb) Determination

| SMILES | Kv3.1 pEC50 [1] | Kv3.1 max R % [1] [%] | fraction unbound at 5 h, 5 micromolar [2] | pEC50 and maxR in the Kv3.1 assay (in words) [1] |
| --- | --- | --- | --- | --- |
| CC1(C)NC(=O)N(c2cnc(Oc3cccc4c3C(C)(C)CO4)cn2)C1=O [Example 2, 3-[5-[(3,3-dimethyl-2H-benzofuran-4-yl)oxy]pyrazin-2-yl]-5,5-dimethyl-imidazolidine-2,4-dione] | 4.68 | 149 |  |  |
| CC[C@@]1(C)NC(=O)N(c2cnc(Oc3cccc4c3C3(CC3)CO4)cn2)C1=O [Example 3, (5R)-5-ethyl-5-methyl-3-(5-spiro[2H-benzofuran-3,1′-cyclopropane]-4-yloxypyrazin-2-yl)imidazolidine-2,4-dione] | 5.15 | 205 |  |  |
| CC1(C)NC(=O)N(c2cnc(Oc3cccc4c3C3(CC3)CO4)cn2)C1=O [Example 4, 5,5-dimethyl-3-(5-spiro[2H-benzofuran-3,1′-cyclopropane]-4-yloxypyrazin-2-yl)imidazolidine-2,4-dione] | 5.17 | 170 |  |  |
| CC[C@@]1(C)NC(=O)N(c2cnc(Oc3ccc(C)c4c3C3(CC3)CO4)cn2)C1=O [Example 5, (5R)-5-ethyl-5-methyl-3-[5-(7-methylspiro[2H-benzofuran-3,1′-cyclopropane]-4-yl)oxypyrazin-2-yl]imidazolidine-2,4-dione] | 5.69 | 149 |  |  |
| CC[C@@]1(C)NC(=O)N(c2cnc(Oc3cccc4c3C(C)(C)CO4)cn2)C1=O [Example 6, (5R)-3-[5-[(3,3-dimethyl-2H-benzofuran-4-yl)oxy]pyrazin-2-yl]-5-ethyl-5-methyl-imidazolidine-2,4-dione] | 4.75 | 165 |  |  |
| Cc1ccc(Oc2cnc(N3C(=O)NC(C)(C)C3=O)cn2)c2c1OCC2(C)C [Example 7, 5,5-dimethyl-3-[5-[(3,3,7-trimethyl-2H-benzofuran-4-yl)oxy]pyrazin-2-yl]imidazolidine-2,4-dione] | 5.12 | 134 |  |  |
| CC[C@@]1(C)NC(=O)N(c2cnc(Oc3ccc(C)c4c3C(C)(C)CO4)cn2)C1=O [Example 8, (5R)-5-ethyl-5-methyl-3-[5-[(3,3,7-trimethyl-2H-benzofuran-4-yl)oxy]pyrazin-2-yl]imidazolidine-2,4-dione] | 5.29 | 119 |  |  |
| CC[C@H]1NC(=O)N(c2cnc(Oc3cccc4c3C(C)(C)CO4)cn2)C1=O [Example 11, (5R)-3-[5-[(3,3-dimethyl-2H-benzofuran-4-yl)oxy]pyrazin-2-yl]-5-ethyl-imidazolidine-2,4-dione] | 4.89 | 165 |  |  |
| CC[C@H]1NC(=O)N(c2cnc(Oc3ccc(C)c4c3C(C)(C)CO4)cn2)C1=O [Example 12, (5R)-5-ethyl-3-[5-[(3,3,7-trimethyl-2H-benzofuran-4-yl)oxy]pyrazin-2-yl]imidazolidine-2,4-dione] | 5.56 | 118 |  |  |
| Cc1ccc(Oc2cnc(N3C(=O)NC4(CCC4)C3=O)cn2)c2c1OCC21CC1 [Example 13, 7-[5-(7-methylspiro[2H-benzofuran-3,1′-cyclopropane]-4-yl)oxypyrazin-2-yl]-5,7-diazaspiro[3.4]octane-6,8-dione] | 5.09 | 165 |  |  |
| Cc1ccc(Oc2cnc(N3C(=O)NC4(CC4)C3=O)cn2)c2c1OCC21CC1 [Example 14, 6-[5-(7-methylspiro[2H-benzofuran-3,1′-cyclopropane]-4-yl)oxypyrazin-2-yl]-4,6-diazaspiro[2.4]heptane-5,7-dione] | 5.51 | 145 |  |  |
| Cc1ccc(Oc2ncc(N3C(=O)NC(C)(C)C3=O)cn2)cc1OC(F)(F)F [RE1, reference compound] | 4.78 | 105 |  |  |
| Cc1ccc(Oc2ccc(N3C(=O)NC(C)(C)C3=O)cn2)cc1OC(F)(F)F [RE2, reference compound] | 5.25 | 118 |  |  |
| Cc1ccc(Oc2ccc(N3C(=O)NC(C)(C)C3=O)nc2)cc1OC(F)(F)F [RE3, reference compound] | 4.89 | 79 |  |  |
| Cc1ccc(Oc2cnc(N3C(=O)NC(C)(C)C3=O)cn2)cc1OC(F)(F)F [RE4, reference compound] | <4.3 | 24 |  |  |
| Cc1ccc(Oc2ccc(N3C(=O)NC(C)(C)C3=O)nc2)c2c1OCC21CC1 [RE7, reference compound] | 5.56 | 130 | 0.023 |  |
| Cc1ccc(Oc2cnc(N3C(=O)NC(C)(C)C3=O)nc2)c2c1OCC21CC1 [RE8, reference compound] | 4.98 | 42 |  |  |
| Cc1ccc(Oc2ccc(N3C(=O)NC(C)(C)C3=O)nn2)c2c1OCC21CC1 [RE9, reference compound] | <4.3 | 16 |  |  |
| Cc1ccc(Oc2cncc(N3C(=O)NC(C)(C)C3=O)n2)c2c1OCC21CC1 [RE10, reference compound] | <4.3 | 22 |  | greatly reduced pEC50 and maxR |
| CC[C@H]1NC(=O)N(c2ccc(Oc3ccc(C)c4c3C3(CC3)CO4)cn2)C1=O [RE12, reference compound] | 5.6 | 149 | 0.019 |  |
| CC[C@H]1NC(=O)N(c2ccc(Oc3cccc4c3C3(CC3)CO4)cn2)C1=O [RE14, reference compound] | 5.2 | 150 | 0.058 |  |
